Data set [1] can be described thus: Calcium titration of purified CaMPARI protein, fluorescence in plate reader. It counts as binding. How it is done: (§1) This Example describes procedures performed to characterize the in vitro properties of the fluorescent proteins. First, CaMPARI protein was expressed from the pRSET plasmid (Life Technologies, Carlsbad, Calif.) in T7 Express E. coli cells cultured for 36 h in 100 mL of autoinduction medium supplemented with 100 mg/L ampicillin. Cell pellets were lysed using B-PER (Pierce, Rockford, Ill.) supplemented with 1 mg/mL lysozyme and 1 min. of sonication. After removing insoluble material by centrifugation, CaMPARI protein was purified by immobilized metal affinity chromatograpy on nickel-charged Profinity resin (Bio-Rad, Hercules, Calif.), washing with 10 mM imidazole and eluting with 100 mM imidazole.
(§2) Using these samples, calcium titrations were used to calculate an apparent affinity of the protein for calcium ions. Aliquots of purified CaMPARI protein were mixed with Ca-EGTA solutions calculated to contain a range of free Ca^2+ ions (Life Technologies) and fluorescence was measured in a plate reader. Furthermore, to observe the photoconversion rate difference+/−calcium, purified CaMPARI in 5 mM CaCl2 or 5 mM EGTA were photoconverted using a 400 nm LED array and green and red fluorescence was measured at various time points to fit an exponential rate to the appearance of red fluorescence or the disappearance of green fluorescence.

Data set [2] can be described thus: Photoconversion rate difference +/- calcium of purified CaMPARI (400 nm LED array). The note with it: purified protein, 5 mM CaCl2 vs 5 mM EGTA. As to the method:
as §1, §2

A short description of data set [3]: Fluorescence of purified CaMPARI green and red forms +/- calcium. The note with it: purified protein. How it is done:
as §1, §2

The test system of data set [4] is cultured rat hippocampal neurons. The experiment in a line: Photoconversion with field electrode stimulation in neurons expressing CaMPARI. It counts as cell-based. The note with it: 83 Hz action potentials at the beginning of a 2 s photoconversion pulse. How it is done:
First, cultured rat hippocampal neurons were prepared and infected with lentivirus expressing CaMPARI from the human synapsin promoter. The neurons were imaged ten days after infection with a 10× objective before and after various combinations of photoconversion and field electrode-induced action potential firing. Prior to imaging, the neuron cultures were washed with imaging buffer and spontaneous activity was blocked with a drug mix.
Following a 2 s pulse of photoconversion light (1.5 W/cm^2) to CaMPARI-expressing neurons, there was no significant decrease in green fluorescence and a small amount of red fluorescence was visible (FIG. 13A). […] Repeated exposures of CaMPARI-expressing neurons to shorter photoconversion light pulses (0.5 s) led to increasing amounts of red fluorescence signal (FIG. 16A) and red/green ratio (two left bars in FIG. 16B), but the ratio of red-to-green photoconversion between 80 Hz field stimulated and unstimulated neurons remained approximately constant (right-most bars in FIG. 16B). Field electrode stimulation of CaMPARI-expressing neurons (without application of photoconversion light) led to transient decreases in the green fluorescence signal, proportional to the number of induced action potentials (FIG. 17).

A short description of data set [5]: Calcium titration of CaMPARI M13-domain variants, sigmoidal fit. It counts as binding. The note with it: dissociation constant for calcium, sigmoidal fit to calcium titration data. How it is done: (§3) Other CaMPARI variants were constructed and there include V398L, W391F+V398L, W391F, W391L, V398T, G395D, W391Y, W391Y+V398T, V398D, W391F+G395D, W391F+V398H. The variants were made based on substitutions within the M13 domain of CaMPARI that alter the affinity, cooperativity and kinetics and calcium binding. The magnitude of fluorescence change was similar for all variants. Dissociation constants for calcium (Kd) and Hill coefficients were determined from a sigmoidal fit to calcium titration data. Kinetics of fluorescence decay upon calcium release were determined by rapid mixing with EGTA in a stopped-flow device.

Data set [6] can be described thus: Kinetics of fluorescence decay upon calcium release, rapid mixing with EGTA in stopped-flow device. It is filed as binding. As to the method: as §3

By Kd is commonly meant the free concentration of one partner at which half of the binding sites on the other are occupied at equilibrium, for simple one-to-one binding. Usually koff stands for the rate constant with which the complex falls apart. Take “CaMPARI v1: isolated polypeptide comprising CaM, EosFP, and M13, SEQ ID NO: 1; Calcium-Modulated Photoactivatable Ratiometric Integrator”: the Kd is 0.13 µM in data set [1] (purified protein, without N-terminal NES, estimated from fluorescence change with increasing calcium, read-out: dissociation constant (Kd)); 0.106 µM in data set [1] (with nuclear export signal (NES) added to the N-terminus, read-out: Kd); 0.111 µM in data set [5]. Also, the “faster green-to-red photoconversion rate in the presence of calcium” value in data set [2] is on record as 29 fold. Also, the “green form less fluorescent in the presence of calcium” value in data set [3] (green form) was 8 fold. Moreover, the “red form less fluorescent in the presence of calcium” value in data set [3] (red form) came to 34 fold. Moreover, in data set [4], the “more green-to-red photoconversion for 160 action potentials relative to 0” value is given as “up to 12 fold”. In data set [6], the koff came to 0.25 s⁻¹.

Source of the values: patent US10041935B2, “Identification of olfactory receptors sensitive to different odorants” (New York University, priority 2013, dated 2018).
